Measured values reported in ChEMBL document CHEMBL2202954, “The effect of PLC-γ2 inhibitors on the growth of human tumour cells” (2012).

How the values were obtained:
Type in all cases: functional
Hs-578T = experiment: Cytotoxicity against human Hs578T cells assessed as cellular growth at 10 uM by SRB assay
MCF7 = experiment: Cytotoxicity against human MCF7 cells assessed as cellular growth at 10 uM by SRB assay
DU-145 = experiment: Cytotoxicity against human DU145 cells assessed as cellular growth at 10 uM by SRB assay
SN12C = experiment: Cytotoxicity against human SN12C cells assessed as cellular growth at 10 uM by SRB assay
CAKI-1 = experiment: Cytotoxicity against human Caki1 cells assessed as cellular growth at 10 uM by SRB assay
786-0 = experiment: Cytotoxicity against human 786-0 cells assessed as cellular growth at 10 uM by SRB assay
UACC-257 = experiment: Cytotoxicity against human UACC257 cells assessed as cellular growth at 10 uM by SRB assay
SK-MEL-2 = experiment: Cytotoxicity against human SK-MEL-2 cells assessed as cellular growth at 10 uM by SRB assay
U-251 = experiment: Cytotoxicity against human U251 cells assessed as cellular growth at 10 uM by SRB assay
SNB-19 = experiment: Cytotoxicity against human SNB19 cells assessed as cellular growth at 10 uM by SRB assay
SF-539 = experiment: Cytotoxicity against human SF539 cells assessed as cellular growth at 10 uM by SRB assay
SF-295 = experiment: Cytotoxicity against human SF295 cells assessed as cellular growth at 10 uM by SRB assay
SF-268 = experiment: Cytotoxicity against human SF268 cells assessed as cellular growth at 10 uM by SRB assay
KM12 = experiment: Cytotoxicity against human KM12 cells assessed as cellular growth at 10 uM by SRB assay
NCI-H522 = experiment: Cytotoxicity against human NCI-H522 cells assessed as cellular growth at 10 uM by SRB assay
NCI-H460 = experiment: Cytotoxicity against human NCI-H460 cells assessed as cellular growth at 10 uM by SRB assay
NCI-H23 = experiment: Cytotoxicity against human NCI-H23 cells assessed as cellular growth at 10 uM by SRB assay
HOP-62 = experiment: Cytotoxicity against human HOP62 cells assessed as cellular growth at 10 uM by SRB assay
RPMI-8226 = experiment: Cytotoxicity against human RPMI8226 cells assessed as cellular growth at 10 uM by SRB assay
MDA-MB-231 = experiment: Cytotoxicity against human MDA-MB-231 cells assessed as cellular growth at 10 uM by SRB assay

O=c1/c(=C/c2ccccc2)sc2nc(-c3ccc(Cl)cc3Cl)nn12
Activity (Hs-578T): 102.33%
Activity (MCF7): 100.42%
Activity (DU-145): 108.27%
Activity (SN12C): 106.99%
Activity (CAKI-1): 96.38%
Activity (786-0): 111.75%
Activity (UACC-257): 83.86%
Activity (SK-MEL-2): 117.96%
Activity (U-251): 105.46%
Activity (SNB-19): 110.52%
Activity (SF-539): 114.11%
Activity (SF-295): 123.35%
Activity (SF-268): 107.58%
Activity (KM12): 114.89%
Activity (NCI-H522): 99.33%
Activity (NCI-H460): 106.69%
Activity (NCI-H23): 102.55%
Activity (HOP-62): 95.63%
Activity (RPMI-8226): 111.72%

Cc1ccc(C(=O)/C=C2/Nc3ccc(C)cc3OC2=O)cc1
Activity (Hs-578T): 122.96%
Activity (MDA-MB-231): 88.3%
Activity (MCF7): 96.32%
Activity (DU-145): 118.59%
Activity (SN12C): 96.84%
Activity (CAKI-1): 96.63%
Activity (786-0): 111.25%
Activity (UACC-257): 103.75%
Activity (SK-MEL-2): 123.75%
Activity (U-251): 108.93%
Activity (SNB-19): 104.52%
Activity (SF-539): 108.44%
Activity (SF-295): 132.37%
Activity (SF-268): 110.95%
Activity (KM12): 106.74%
Activity (NCI-H522): 100.47%
Activity (NCI-H460): 117.71%
Activity (NCI-H23): 99.9%
Activity (HOP-62): 115.04%
Activity (RPMI-8226): 56.86%

Cc1ccc2c(c1)N/C(=C/C(=O)c1ccc(Cl)cc1)C(=O)O2
Activity (Hs-578T): 113.45%
Activity (MDA-MB-231): 86.67%
Activity (MCF7): 87.54%
Activity (DU-145): 112.1%
Activity (SN12C): 93.53%
Activity (CAKI-1): 105.93%
Activity (786-0): 117.98%
Activity (UACC-257): 97.03%
Activity (SK-MEL-2): 108.87%
Activity (U-251): 100.94%
Activity (SNB-19): 105.39%
Activity (SF-539): 106.89%
Activity (SF-295): 113.06%
Activity (SF-268): 105.3%
Activity (KM12): 102.59%
Activity (NCI-H522): 81.38%
Activity (NCI-H460): 109.79%
Activity (NCI-H23): 98.65%
Activity (HOP-62): 113.93%
Activity (RPMI-8226): 64.3%

Nc1c(C(=O)Nc2ccccc2)sc2nc3c(cc12)C(=O)CCC3
Activity (Hs-578T): 37.53%
Activity (MDA-MB-231): 52.08%
Activity (MCF7): 19.61%
Activity (DU-145): 0.62%
Activity (SN12C): 59.85%
Activity (CAKI-1): 54.68%
Activity (786-0): 36.19%
Activity (UACC-257): 52.83%
Activity (SK-MEL-2): 38.68%
Activity (U-251): 25.69%
Activity (SNB-19): 36.05%
Activity (SF-539): 0.84%
Activity (SF-295): -12.42%
Activity (SF-268): 53.38%
Activity (KM12): 19.9%
Activity (NCI-H522): -33.85%
Activity (NCI-H460): 12.88%
Activity (NCI-H23): 39.48%
Activity (HOP-62): 39.88%
Activity (RPMI-8226): 30.21%

Cc1ccccc1NC(=O)c1sc2nc3c(cc2c1N)C(=O)CCC3
Activity (Hs-578T): 25.78%
Activity (MDA-MB-231): 61.61%
Activity (MCF7): 21.69%
Activity (DU-145): 18.31%
Activity (SN12C): 64.53%
Activity (CAKI-1): 55.35%
Activity (786-0): 51.56%
Activity (UACC-257): 60.99%
Activity (SK-MEL-2): 58.56%
Activity (U-251): 48.96%
Activity (SNB-19): 46.1%
Activity (SF-539): 27.63%
Activity (SF-295): 57.18%
Activity (SF-268): 65.36%
Activity (KM12): 19.22%
Activity (NCI-H522): 12.53%
Activity (NCI-H460): 15.33%
Activity (NCI-H23): 50.58%
Activity (HOP-62): 38.2%
Activity (RPMI-8226): 67.19%

Cc1ccc(Cl)cc1NC(=O)c1sc2nc3c(cc2c1N)C(=O)CCC3
Activity (Hs-578T): 60.85%
Activity (MDA-MB-231): 80.03%
Activity (MCF7): 35.55%
Activity (DU-145): 77.37%
Activity (SN12C): 80.57%
Activity (CAKI-1): 41.45%
Activity (786-0): 89.229%
Activity (UACC-257): 44.88%
Activity (SK-MEL-2): 64.51%
Activity (U-251): 59.13%
Activity (SNB-19): 68.14%
Activity (SF-539): 47.69%
Activity (SF-295): 4.01%
Activity (SF-268): 74.86%
Activity (KM12): 37.01%
Activity (NCI-H522): 22.92%
Activity (NCI-H460): 28.15%
Activity (NCI-H23): 63.04%
Activity (HOP-62): 60.95%
Activity (RPMI-8226): 95.05%

Cc1ccc(S(=O)(=O)NC2=NC(=O)/C(=C\c3ccccc3)S2)cc1
Activity (Hs-578T): 128.48%
Activity (MDA-MB-231): 100.89%
Activity (MCF7): 97.41%
Activity (DU-145): 111.67%
Activity (SN12C): 99.26%
Activity (CAKI-1): 102.92%
Activity (786-0): 107.82%
Activity (UACC-257): 104.4%
Activity (SK-MEL-2): 117.54%
Activity (U-251): 98.58%
Activity (SNB-19): 108.61%
Activity (SF-539): 96.06%
Activity (SF-295): 114.32%
Activity (SF-268): 99.46%
Activity (KM12): 115%
Activity (NCI-H522): 85.18%
Activity (NCI-H460): 119.27%
Activity (NCI-H23): 107.93%
Activity (HOP-62): 100.56%
Activity (RPMI-8226): 104.04%

Nc1c(C(=O)Nc2cccc(Cl)c2)sc2nc3c(cc12)C(=O)CCC3
Activity (Hs-578T): 4.53%
Activity (MDA-MB-231): 43.9%
Activity (MCF7): 16.68%
Activity (DU-145): 11.61%
Activity (SN12C): 54.42%
Activity (CAKI-1): 40.31%
Activity (786-0): 47.72%
Activity (UACC-257): 68.88%
Activity (SK-MEL-2): 69.74%
Activity (U-251): 46.41%
Activity (SNB-19): 38.19%
Activity (SF-539): 27.25%
Activity (SF-295): -20.21%
Activity (SF-268): 63.09%
Activity (KM12): 21.64%
Activity (NCI-H522): 14.59%
Activity (NCI-H460): 10.27%
Activity (NCI-H23): 38%
Activity (HOP-62): 47.04%
Activity (RPMI-8226): 51.81%

O=C(NCCc1ccccc1)c1cc2cccc([N+](=O)[O-])c2[nH]1
Activity (Hs-578T): 111.09%
Activity (MDA-MB-231): 77.17%
Activity (DU-145): 112.66%
Activity (SN12C): 94.11%
Activity (CAKI-1): 87.57%
Activity (786-0): 105.28%
Activity (UACC-257): 108.88%
Activity (SK-MEL-2): 101.4%
Activity (U-251): 97.58%
Activity (SNB-19): 97.53%
Activity (SF-539): 103.09%
Activity (SF-295): 92.52%
Activity (SF-268): 106.93%
Activity (KM12): 106.02%
Activity (NCI-H522): 84.92%
Activity (NCI-H460): 101.23%
Activity (NCI-H23): 92.74%
Activity (HOP-62): 90.84%
Activity (RPMI-8226): 88.5%

O=C(Nc1ccc(S(=O)(=O)Nc2nccs2)cc1)c1cccs1
Activity (Hs-578T): 122.2%
Activity (MDA-MB-231): 103.15%
Activity (MCF7): 103.71%
Activity (DU-145): 114.06%
Activity (SN12C): 103.07%
Activity (CAKI-1): 99.02%
Activity (786-0): 104.56%
Activity (UACC-257): 102.54%
Activity (SK-MEL-2): 113.23%
Activity (U-251): 101.85%
Activity (SNB-19): 106.66%
Activity (SF-539): 105.81%
Activity (SF-295): 140.51%
Activity (SF-268): 114.27%
Activity (KM12): 114.86%
Activity (NCI-H522): 93.79%
Activity (NCI-H460): 123.68%
Activity (NCI-H23): 108.72%
Activity (HOP-62): 114.96%
Activity (RPMI-8226): 107.43%

Nc1c(C(=O)Nc2ccccc2F)sc2nc3c(cc12)C(=O)CCC3
Activity (Hs-578T): 37.25%
Activity (MDA-MB-231): 48.88%
Activity (MCF7): 22.91%
Activity (DU-145): 8.4%
Activity (SN12C): 49.76%
Activity (CAKI-1): 4.36%
Activity (786-0): 41.5%
Activity (UACC-257): 66.94%
Activity (SK-MEL-2): 42.64%
Activity (U-251): 31.63%
Activity (SNB-19): 41.11%
Activity (SF-539): 10.48%
Activity (SF-295): 3.17%
Activity (SF-268): 54.87%
Activity (KM12): 24.63%
Activity (NCI-H522): -15.17%
Activity (NCI-H460): 11.41%
Activity (NCI-H23): 42.84%
Activity (HOP-62): 42.7%
Activity (RPMI-8226): 52.02%
